# Experimental data reported in patent US20250059156A1, “THERAPEUTIC ALKALOID COMPOUNDS” (Sensorium Therapeutics, Inc., priority 2022, published 2025).
# How the values were obtained:
# SERT = SERT (Homo sapiens (Human), UniProt P31645); assay: SERT inhibition assay (Neurotransmitter Transporter Fluorescence assay); assay type: cell-based; conditions: class symbols; legend in nM/micromolar
# Protocol: SERT inhibition was measured using a Neruotransmitter Transportation Fluorescence assay. Briefly, stable 5HHH cells were prepared in a 384 microwell plate. Compounds were prepared by in assay buffer (20 mM HEPES, 0.1% BSA). The compounds were added to the plated cells and incubated for 30 minutes at 37° C. 25 μL of dye solution (Molecular Devices Neurotransmitter Transporter Uptake Assay Kit) was added per well and incubated for 30 minutes at 37° C. The plates were then read on a plate reader.
# PDE4A1A = PDE4A1A (Homo sapiens (Human), UniProt P27815); assay: PDE4 percent inhibition assay; assay type: biochemical; conditions: for inhibition at 10 µM: read-out: PDE4 Isoform % Inhibition @ 10 μM PDE4A1A
# Sequence of PDE4A1A (P27815 other isoform, or with tags, fused parts or gaps): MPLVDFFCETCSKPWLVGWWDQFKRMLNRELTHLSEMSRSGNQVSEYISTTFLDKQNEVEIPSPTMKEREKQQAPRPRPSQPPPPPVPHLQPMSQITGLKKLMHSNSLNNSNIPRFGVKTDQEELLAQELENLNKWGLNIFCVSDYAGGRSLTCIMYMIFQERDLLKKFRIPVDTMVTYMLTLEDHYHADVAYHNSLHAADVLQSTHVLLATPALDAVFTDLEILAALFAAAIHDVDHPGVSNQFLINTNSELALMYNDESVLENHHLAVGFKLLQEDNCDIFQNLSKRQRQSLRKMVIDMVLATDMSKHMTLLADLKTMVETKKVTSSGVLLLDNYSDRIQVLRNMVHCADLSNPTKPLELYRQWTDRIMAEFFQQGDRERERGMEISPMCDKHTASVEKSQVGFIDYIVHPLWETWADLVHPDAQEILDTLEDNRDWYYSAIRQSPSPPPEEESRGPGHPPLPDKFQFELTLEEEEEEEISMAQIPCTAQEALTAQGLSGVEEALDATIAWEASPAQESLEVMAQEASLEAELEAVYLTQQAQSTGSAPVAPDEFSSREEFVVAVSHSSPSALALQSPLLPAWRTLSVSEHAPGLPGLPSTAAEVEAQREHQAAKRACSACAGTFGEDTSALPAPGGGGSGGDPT
# Protocol: (§1) PDE4 assay kit (BPS Bioscience, San Diego, CA), as described below.
# (§2) • 1) Dilute 20 μM FAM-Cyclic-3′, 5′-AMP stock 100-fold with PDE buffer to make a 200 nM solution. Make only sufficient quantity needed for the assay; store remaining 20 μM stock solution in aliquots at −20° C. • 2) Add 25 μl of FAM-Cyclic-3′,5′-AMP (200 nM) to each well designated “Positive Control”, “Test Inhibitor”, and “Substrate Control”. • 3) Add 20 μl of PDE assay buffer to each well designated “Substrate Control” and 45 μl of PDE assay buffer to each well designated “Blank”. • 4) Add 5 μl of inhibitor solution to each well designated “Test Inhibitor”. For the wells labeled “Positive Control”, “Substrate Control” and “Blank”, add 5 μl of the same solution without inhibitor (inhibitor buffer). • 5) Thaw PDE on ice. Upon first thaw, briefly spin tube containing enzyme to recover the full contents of the tube. • 6) Dilute PDE4 in PDE buffer to 7.5 pg/μl (0.15 ng/reaction)*. Initiate reaction by adding 20 μl of PDE4 (7.5 pg/μl) to the wells designated “Positive Control” and “Test Inhibitor.” • 7) Incubate at room temperature for 1 hour.
# (§3) • 1) Mix binding agent thoroughly and dilute binding agent 1:100 with binding agent diluent. • 2) Add 100 μl diluted binding agent to each microwell. Incubate at room temperature for 1 hour with slow shaking. • 3) Read the fluorescent polarization of the sample in a microtiter-plate reader equipped for the measurement of fluorescence polarization, capable of excitation at wavelengths ranging from 485±5 nm and detection of emitted light ranging from 528±10 nm. Blank value is subtracted from all other values.
# (§4) 100 µM dilutions of the test compounds were prepared in assay buffer (10% DMSO concentration) and 5 μl of the dilution was added to a 50 μl reaction so that the final concentration of DMSO is 1% in all of reactions.
# (§5) The enzymatic reactions were conducted at room temperature for 60 minutes in a 50 μl mixture containing PDE assay buffer, 100 nM FAM-cAMP, a PDE enzyme and the test compound.
# (§6) After the enzymatic reaction, 100 Is of a binding solution (1:100 dilution of the binding agent with the binding agent diluent) was added to each reaction and the reaction was performed at room temperature for 60 minutes.
# (§7) Fluorescence intensity was measured at an excitation of 485 nm and an emission of 528 nm using a Tecan Infinite M1000 microplate reader.
# PDE4B2 = PDE4B2 (Homo sapiens (Human), UniProt Q07343); assay: PDE4 percent inhibition assay; assay type: biochemical; conditions: for inhibition at 10 µM: read-out: PDE4 Isoform % Inhibition @ 10 μM PDE4B2
# Sequence of PDE4B2 (Q07343 other isoform, or with tags, fused parts or gaps): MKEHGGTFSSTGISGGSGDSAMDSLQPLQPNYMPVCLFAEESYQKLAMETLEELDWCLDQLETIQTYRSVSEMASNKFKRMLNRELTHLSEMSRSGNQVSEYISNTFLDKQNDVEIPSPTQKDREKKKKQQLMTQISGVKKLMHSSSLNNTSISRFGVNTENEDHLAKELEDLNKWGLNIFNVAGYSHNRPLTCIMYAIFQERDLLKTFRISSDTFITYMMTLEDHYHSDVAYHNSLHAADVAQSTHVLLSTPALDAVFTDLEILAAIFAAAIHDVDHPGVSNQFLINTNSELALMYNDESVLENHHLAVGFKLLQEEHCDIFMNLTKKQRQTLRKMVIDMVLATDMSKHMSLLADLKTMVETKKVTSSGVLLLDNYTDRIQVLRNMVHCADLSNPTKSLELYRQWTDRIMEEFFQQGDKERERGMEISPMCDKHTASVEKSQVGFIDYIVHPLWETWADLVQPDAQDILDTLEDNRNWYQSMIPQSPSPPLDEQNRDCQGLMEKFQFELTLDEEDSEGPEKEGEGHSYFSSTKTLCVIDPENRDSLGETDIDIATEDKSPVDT
# Protocol: as §1, §2, §3, §4, §5, §6, §7
# PDE4C1 = PDE4C1 (Homo sapiens (Human), UniProt Q08493); assay: PDE4 percent inhibition assay; assay type: biochemical; conditions: for inhibition at 10 µM: read-out: PDE4 Isoform % Inhibition @ 10 μM PDE4C1
# Sequence of PDE4C1 (Q08493 whole entry, canonical isoform): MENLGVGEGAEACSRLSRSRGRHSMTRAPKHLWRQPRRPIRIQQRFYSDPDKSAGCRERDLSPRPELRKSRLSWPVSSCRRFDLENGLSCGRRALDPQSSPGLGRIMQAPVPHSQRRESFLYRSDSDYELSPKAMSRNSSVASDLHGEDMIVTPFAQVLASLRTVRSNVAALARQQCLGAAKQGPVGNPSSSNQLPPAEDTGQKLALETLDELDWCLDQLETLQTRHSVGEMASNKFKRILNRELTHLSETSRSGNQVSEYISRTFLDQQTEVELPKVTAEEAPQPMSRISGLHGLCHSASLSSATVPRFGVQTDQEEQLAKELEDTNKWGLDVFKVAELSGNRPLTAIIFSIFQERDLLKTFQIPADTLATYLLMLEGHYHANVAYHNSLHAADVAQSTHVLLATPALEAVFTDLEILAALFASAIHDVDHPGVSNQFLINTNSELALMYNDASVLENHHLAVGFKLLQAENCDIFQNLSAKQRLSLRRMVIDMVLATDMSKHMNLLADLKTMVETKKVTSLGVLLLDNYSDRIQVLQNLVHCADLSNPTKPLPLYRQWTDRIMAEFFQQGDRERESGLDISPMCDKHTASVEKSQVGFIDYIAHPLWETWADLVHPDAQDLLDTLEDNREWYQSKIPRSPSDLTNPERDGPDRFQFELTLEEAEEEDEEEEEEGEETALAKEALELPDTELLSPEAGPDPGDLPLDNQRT
# Protocol: as §1, §2, §3, §4, §5, §6, §7
# PDE4D2 = PDE4D2 (Homo sapiens (Human), UniProt Q08499); assay: PDE4 percent inhibition assay; assay type: biochemical; conditions: for inhibition at 10 µM: read-out: PDE4 Isoform % Inhibition @ 10 μM PDE4D2
# Sequence of PDE4D2 (Q08499 303-809, change not shown): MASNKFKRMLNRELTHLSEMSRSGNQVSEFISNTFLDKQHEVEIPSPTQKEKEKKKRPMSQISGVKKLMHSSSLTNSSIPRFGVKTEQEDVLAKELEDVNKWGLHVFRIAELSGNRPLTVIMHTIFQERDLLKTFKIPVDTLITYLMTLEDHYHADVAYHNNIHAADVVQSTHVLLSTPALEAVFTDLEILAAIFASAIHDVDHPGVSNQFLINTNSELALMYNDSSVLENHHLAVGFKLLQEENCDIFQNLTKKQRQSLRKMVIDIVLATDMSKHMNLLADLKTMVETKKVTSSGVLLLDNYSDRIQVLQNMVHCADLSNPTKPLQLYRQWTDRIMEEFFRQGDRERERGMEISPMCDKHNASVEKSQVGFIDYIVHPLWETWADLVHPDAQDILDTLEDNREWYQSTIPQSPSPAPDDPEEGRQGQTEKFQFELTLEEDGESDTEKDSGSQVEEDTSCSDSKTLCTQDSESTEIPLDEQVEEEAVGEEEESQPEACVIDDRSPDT
# Protocol: as §1, §2, §3, §4, §5, §6, §7
# Sequence of SERT (P31645 whole entry, species assumed): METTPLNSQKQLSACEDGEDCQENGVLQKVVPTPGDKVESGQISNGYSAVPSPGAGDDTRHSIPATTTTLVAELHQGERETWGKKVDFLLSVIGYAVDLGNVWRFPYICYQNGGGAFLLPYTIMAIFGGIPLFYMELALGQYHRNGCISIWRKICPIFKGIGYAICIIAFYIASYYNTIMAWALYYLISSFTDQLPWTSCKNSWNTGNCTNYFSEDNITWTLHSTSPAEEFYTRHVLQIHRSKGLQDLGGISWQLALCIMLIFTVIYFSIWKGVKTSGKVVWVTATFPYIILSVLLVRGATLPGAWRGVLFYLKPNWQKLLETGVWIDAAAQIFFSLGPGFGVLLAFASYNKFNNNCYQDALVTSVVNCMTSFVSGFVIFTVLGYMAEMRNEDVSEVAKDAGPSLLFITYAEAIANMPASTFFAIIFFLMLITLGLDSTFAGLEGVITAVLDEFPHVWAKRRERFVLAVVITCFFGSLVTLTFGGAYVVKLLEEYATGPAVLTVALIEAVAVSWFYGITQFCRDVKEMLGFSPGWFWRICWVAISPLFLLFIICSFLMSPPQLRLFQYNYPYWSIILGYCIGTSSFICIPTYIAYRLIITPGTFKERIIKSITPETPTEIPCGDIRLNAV
SMILES,IC50 (SERT) [nM],inhibition at 10 µM (PDE4A1A) [%],inhibition at 10 µM (PDE4B2) [%],inhibition at 10 µM (PDE4C1) [%],inhibition at 10 µM (PDE4D2) [%],PDE4 Isoform % Inhibition @ 10 μM PDE4A1A (PDE4A1A; 10 μM),PDE4 Isoform % Inhibition @ 10 μM PDE4B2 (PDE4B2; 10 μM),PDE4 Isoform % Inhibition @ 10 μM PDE4C1 (PDE4C1; 10 μM),PDE4 Isoform % Inhibition @ 10 μM PDE4D2 (PDE4D2; 10 μM)
"COc1ccc([C@]23CCN(C)[C@H]2CC(=O)C=C3c2ccccc2)cc1OC (racemic) [Compound 201, rac-(3aS,7aS)-3a-(3,4-dimethoxyphenyl)-1-methyl-4-phenyl-1,2,3,3a,7,7a-hexahydro-6H-indol-6-one]",> 1000,≥ 70,≥ 70,30 to 50,≥ 70,,,,
"COc1ccc([C@@]23CCN(C)[C@H]2CC(=O)[C@@H]2O[C@@H]23)cc1OC (racemic) [Compound 208, rac-(1aR,3aS,6aS,6bR)-6a-(3,4-dimethoxyphenyl)-4-methyloctahydro-2H-oxireno[2,3-e]indol-2-one]",50 to 100,≥ 70,≥ 70,≥ 70,≥ 70,,,,
"COc1ccc([C@@]23CC[C@H](n4ccc(C(F)(F)F)n4)C[C@@H]2N(C)CC3)cc1OC [Compound 101, (3aS,6S,7aS)-3a-(3,4-dimethoxyphenyl)-1-methyl-6-(3-(trifluoromethyl)-1H-pyrazol-1-yl)octahydro-1H-indole]",,< 30,< 30,< 30,< 30,,,,
"COc1ccc([C@@]23CC[C@H](n4cccn4)C[C@@H]2N(C)CC3)cc1OC [Compound 102, (3aS,6S,7aS)-3a-(3,4-dimethoxyphenyl)-1-methyl-6-(1H-pyrazol-1-yl)octahydro-1H-indole]",< 50,< 30,< 30,< 30,< 30,,,,
"COc1ccc([C@@]23CC[C@@H](n4cccn4)C[C@@H]2N(C)CC3)cc1OC [Compound 103, (3aS,6R,7aS)-3a-(3,4-dimethoxyphenyl)-1-methyl-6-(1H-pyrazol-1-yl)octahydro-1H-indole]",< 50,< 30,< 30,< 30,< 30,,,,
"COc1ccc([C@@]23CC[C@H](N4CCC4)C[C@@H]2N(C)CC3)cc1OC [Compound 104, (3aS,6S,7aS)-6-(azetidin-1-yl)-3a-(3,4-dimethoxyphenyl)-1-methyloctahydro-1H-indole]",100 to 500,< 30,< 30,< 30,< 30,,,,
"COc1ccc([C@@]23CC[C@@H](N4CCCC4)C[C@@H]2N(C)CC3)cc1OC [Compound 105, (3aS,6R,7aS)-3a-(3,4-dimethoxyphenyl)-1-methyl-6-(pyrrolidin-1-yl)octahydro-1H-indole]",100 to 500,< 30,< 30,< 30,< 30,,,,
"COc1ccc([C@@]23CC[C@H](N4CCCC4)C[C@@H]2N(C)CC3)cc1OC [Compound 106, (3aS,6S,7aS)-3a-(3,4-dimethoxyphenyl)-1-methyl-6-(pyrrolidin-1-yl)octahydro-1H-indole]",500 to 1000,< 30,< 30,< 30,< 30,,,,
"COc1ccc([C@@]23CC[C@H](N4CCCCC4)C[C@@H]2N(C)CC3)cc1OC [Compound 107, (3aS,6S,7aS)-3a-(3,4-dimethoxyphenyl)-1-methyl-6-(piperidin-1-yl)octahydro-1H-indole]",> 1000,< 30,< 30,< 30,< 30,,,,
"COc1ccc([C@@]23CC[C@H](N4CCOCC4)C[C@@H]2N(C)CC3)cc1OC [Compound 108, 4-((3aS,6S,7aS)-3a-(3,4-dimethoxyphenyl)-1-methyloctahydro-1H-indol-6-yl)morpholine]",100 to 500,< 30,< 30,< 30,< 30,,,,
"COc1ccc([C@@]23CC[C@@H](N4CCOCC4)C[C@@H]2N(C)CC3)cc1OC [Compound 109, 4-((3aS,6R,7aS)-3a-(3,4-dimethoxyphenyl)-1-methyloctahydro-1H-indol-6-yl)morpholine]",100 to 500,< 30,< 30,< 30,< 30,,,,
"COc1ccc([C@@]23CC[C@@H](N4CCCC4=O)C[C@@H]2N(C)CC3)cc1OC [Compound 110, 1-((3aS,6R,7aS)-3a-(3,4-dimethoxyphenyl)-1-methyloctahydro-1H-indol-6-yl)pyrrolidin-2-one]",< 50,< 30,< 30,< 30,< 30,,,,
"COc1ccc([C@@]23CC[C@H](N4CCCC4=O)C[C@@H]2N(C)CC3)cc1OC [Compound 111, 1-((3aS,6S,7aS)-3a-(3,4-dimethoxyphenyl)-1-methyloctahydro-1H-indol-6-yl)pyrrolidin-2-one]",< 50,< 30,< 30,< 30,< 30,,,,
"COc1ccc([C@@]23CC[C@@H](n4ccc(C(F)(F)F)n4)C[C@@H]2N(C)CC3)cc1OC [Compound 115, (3aS,6R,7aS)-3a-(3,4-dimethoxyphenyl)-1-methyl-6-(3-(trifluoromethyl)-1H-pyrazol-1-yl)octahydro-1H-indole]",< 50,< 30,< 30,< 30,< 30,,,,
"COc1ccc([C@@]23CC[C@@H](N4CCC4)C[C@@H]2N(C)CC3)cc1OC [Compound 116, (3aS,6R,7aS)-6-(azetidin-1-yl)-3a-(3,4-dimethoxyphenyl)-1-methyloctahydro-1H-indole]",500 to 1000,< 30,< 30,< 30,< 30,,,,
"COc1ccc([C@]23CCN(C)[C@H]2CC2(CCCO2)CC3)cc1OC (stereo partly drawn) [Compound 117, (3a'S,7a'S)-3a′-(3,4-dimethoxyphenyl)-1′-methyldecahydro-3H-spiro[furan-2,6′-indole]]",< 50,30 to 50,30 to 50,< 30,30 to 50,,,,
"COc1ccc([C@]23CCN(C)[C@H]2CC2(CCO2)CC3)cc1OC (stereo partly drawn) [Compound 118, (3aS,7aS)-3a-(3,4-dimethoxyphenyl)-1-methyloctahydrospiro[indole-6,2′-oxetane]]",< 50,30 to 50,< 30,30 to 50,30 to 50,,,,
COc1ccc([C@]23CC[C@@H](n4ccc(C(F)(F)F)n4)C[C@H]2N(C)CC3)cc1OC [Compound 121],100 to 500,,,,,D (D if the percent inhibition is less than 30%),B (B if the percent inhibition is 50-70%),D (D if the percent inhibition is less than 30%),B (B if the percent inhibition is 50-70%)
CCN1CC[C@]2(c3ccc(OC)c(OC)c3)CCC(=O)C[C@H]12 [Compound 223],> 1000,,,,,,,,
CCN1CC[C@@]2(c3ccc(OC)c(OC)c3)CCC(=O)C[C@@H]12 [Compound 224],< 50,,,,,,,,
COc1ccc([C@@]23CCC(=O)C[C@@H]2N(C(C)C)CC3)cc1OC [Compound 226],500 to 1000,,,,,,,,
COc1ccc([C@]23CCC(=O)C[C@H]2N(C(C)C)CC3)cc1OC [Compound 227],500 to 1000,,,,,,,,
